Measurements published in patent US20250387388A1, “COMPOUND AS TRK INHIBITOR AND/OR RET INHIBITOR AND USE THEREOF” (Medinno Pharmaceutical Technology (Zhuhai) Co., Ltd., priority 2022, published 2025).

How the values were obtained:
RET = RET (Homo sapiens (Human), UniProt P07949); test: Inhibitory activity on RET kinase (HTRF KinEASE-TK); format: biochemical; settings: ATP 16 μM
Source text: 3) Formulate 2.5× kinase with 1× kinase reaction buffer.

[1] = test system: ovalbumin-induced asthma model in mice; test: Ovalbumin-induced asthma model in mice; format: in vivo, Balb/c mice; settings: nasal administration BID 5 days: MDI-1228 3 mg/kg, MDI-1288 3 mg/kg, MDI-1233 1, 3, 10 mg/kg; for Bronchoalveolar lavage fluid IL-5 expression level / Inflammatory cell count in bronchoalveolar lavage fluid / Lung tissue inflammatory cell infiltration (HE pathology) / Serum IgE expression level: vs. vehicle (model) group, dexamethasone 1 mg/kg gavage QD
Description: After 7 days of acclimatization, animals were randomly grouped based on their body weight. The experiment was divided into 8 groups, with 8 mice in each group, as detailed in the table below.
• Preparation of Immunogen: Weigh an appropriate amount of OVA, to which an appropriate amount of PBS was added, to achieve a final concentration of 0.1 mg/ml. Then, an equal volume of aluminum adjuvant was added, and the resulting mixture was mixed well, and stored at 4° C., which was prepared before use. • Preparation of Sensitizer (5% OVA): Weigh an appropriate amount of OVA, to which an appropriate amount of PBS was added, to achieve a final concentration of 5%. The resulting mixture was mixed well, and store it at 4° C. for later use, which was prepared before use. • Preparation of Vehicle: Add 200 μl of Tween 80 to 100 ml of saline, and mix it well. […] Mix it well, and store it at 4° C. for later use. […] Mix it well, and store it at 4° C. for later use. […] Mix it well, and store it at 4° C. for later use. The solution was prepared once every three days.
• Immunization: On days 0, 7, 14, and 21, 200 μl of PBS was injected intraperitoneally for the first group, and 200 μl of (10 μg) OVA/aluminum adjuvant emulsion was injected intraperitoneally for groups 2-8. • Sensitization: From days 28 to 32, the first group of animals was exposed to nebulized PBS in a nebulization box for 20 minutes, and the groups 2-8 were exposed to nebulized 5% OVA in a nebulization box for 20 minutes. And then, they were removed. The sensitization was conducted at 12:30 PM daily. • Administration: The medicine was administrated twice a day at 9 AM and 5 PM via nasal drops. Dexamethasone (Dex) was administered by gavage once a day at 9 AM.
Serum IgE: Blood was collected from the orbits of animals after carbon dioxide euthanasia, and plasma was separated and stored at −40 degrees for plasma IgE detection.
Bronchoalveolar Lavage Fluid (BALF) Cell Count: An appropriate amount of foetal bovine serum was weighted and dissolved in PBS to a final concentration of 1%. After orbital blood collection, the trachea was exposed, and a 1 ml syringe needle was replaced with a mouse gavage needle. 0.8 ml of the lavage fluid was aspirated from the syringe and the lungs were lavaged three times. The lavage fluids were collected, and centrifuged at 1000 rpm for 10 minutes, and the supernatant was collected and stored at −40 degrees Celsius. Cells were resuspended with 1 ml of PBS and counted. 100 ul of centrifuged smear was taken and stained with Diff quick and the number of eosinophils, basophils, lymphocytes and macrophages were recorded.
Bronchoalveolar Lavage Fluid IL-5: Bronchoalveolar lavage fluid was collected to detect IL-5.
Pathological scoring criteria were: • A) 0 points: No lymphocyte infiltration; • B) 1 point: Trace lymphocyte infiltration; • C) 2 points: Mild lymphocyte infiltration; • D) 3 points: Moderate lymphocyte infiltration; • E) 4 points: Severe lymphocyte infiltration; • After scoring, the results were calculated and analyzed.

acne model in rabbits = test: Acne model in rabbits (coal tar + Propionibacterium acnes); format: in vivo, New Zealand white rabbits; settings: for Rabbit ear weight: twice per day, topical, 2 weeks; for Serum DHT level / Serum IL-1α level: vs. model (vehicle) group; for Effect on inflammatory factors and acne (conclusion): rabbit, in vivo
Description: Modeling: Rabbits were acclimated for 7 days. On the right inner ear canal exit of the rabbits, a 2 cm×2 cm area was treated with 2% coal tar solution once a day, 0.5-1 mL each time, for 26 consecutive days. […] On the 8th day, Propionibacterium acnes was injected intradermally at 3-4 sites on the rabbit ears, 50 μl per rabbit, injected every other day for a total of 5 times. Treatment was started randomly on the 9th day after the last injection.
Rabbits were treated according to their groups. The blank group received no treatment. […] The model group received an equal amount of vehicle treatment, with the same application method and duration as the test drug groups.
Twenty-four hours after the last administration, a 2.8 cm punch was used to prepare ear samples at the application site, and their weight was measured. The ears from the modeling site were fixed with 4% paraformaldehyde, and consecutive sections (3 slices) were taken from the same location for HE staining and histopathological analysis. At the same time, the area of 3 hair follicles and the diameter of 3 sebaceous glands were measured to calculate the average values. Blood was drawn from the heart and centrifuged to obtain serum, and the levels of interleukin-1α (IL-1α), interleukin-6 (IL-6), and dihydrotestosterone (DHT) in serum were determined according to the ELISA kit instructions.
Tissue samples from animal ears were excised, fixed in 4% paraformaldehyde, dehydrated, embedded in paraffin, and sectioned and HE stained for observation of histopathological morphology changes. The tissue samples were fixed in 4% paraformaldehyde at normal temperature and the taken ears tissue was rinsed with running water for several hours, dehydrated through a series of ethanol solutions (70%, 80%, 90%), and then treated with a mixture of pure alcohol and xylene for 15 minutes, followed by xylene I for 15 minutes and xylene II for 15 minutes (until transparent). The tissue was then placed in a mixture of xylene and paraffin at a volume ratio of 1:1 for 15 minutes, followed by immersion with paraffin I and paraffin II each for 50-60 minutes. The tissue was embedded in paraffin and sectioned, and the sections were baked, dewaxed and hydrated in distilled water. The resulting sections were then stained in hematoxylin solution for 3 minutes, differentiated in a hydrochloric acid alcohol solution for 15 seconds, slightly washed, blued in a return blue solution for 15 seconds, rinsed with running water, stained with eosin for 3 minutes, rinsed with running water, dehydrated, cleared, and mounted for microscopic examination.
A double-antibody one-step sandwich Enzyme-linked Immunosorbent Assay (ELISA) ket was used. A capture antibody for the mouse target indicators was pre-coated onto microplate wells, to which samples, standards, and HRP-labeled detection antibodies were added sequentially, followed by incubation and thorough washing. TMB substrate was added for color development, which turned into blue in the presence of peroxidase and then into yellow after acidification. The depth of color was positively correlated with the concentration of the target in the samples. The absorbance (OD450 value) was measured at a wavelength of 450 nm using the microplate reader, and the sample concentration was calculated.

Sequence of RET (P07949 29-1114): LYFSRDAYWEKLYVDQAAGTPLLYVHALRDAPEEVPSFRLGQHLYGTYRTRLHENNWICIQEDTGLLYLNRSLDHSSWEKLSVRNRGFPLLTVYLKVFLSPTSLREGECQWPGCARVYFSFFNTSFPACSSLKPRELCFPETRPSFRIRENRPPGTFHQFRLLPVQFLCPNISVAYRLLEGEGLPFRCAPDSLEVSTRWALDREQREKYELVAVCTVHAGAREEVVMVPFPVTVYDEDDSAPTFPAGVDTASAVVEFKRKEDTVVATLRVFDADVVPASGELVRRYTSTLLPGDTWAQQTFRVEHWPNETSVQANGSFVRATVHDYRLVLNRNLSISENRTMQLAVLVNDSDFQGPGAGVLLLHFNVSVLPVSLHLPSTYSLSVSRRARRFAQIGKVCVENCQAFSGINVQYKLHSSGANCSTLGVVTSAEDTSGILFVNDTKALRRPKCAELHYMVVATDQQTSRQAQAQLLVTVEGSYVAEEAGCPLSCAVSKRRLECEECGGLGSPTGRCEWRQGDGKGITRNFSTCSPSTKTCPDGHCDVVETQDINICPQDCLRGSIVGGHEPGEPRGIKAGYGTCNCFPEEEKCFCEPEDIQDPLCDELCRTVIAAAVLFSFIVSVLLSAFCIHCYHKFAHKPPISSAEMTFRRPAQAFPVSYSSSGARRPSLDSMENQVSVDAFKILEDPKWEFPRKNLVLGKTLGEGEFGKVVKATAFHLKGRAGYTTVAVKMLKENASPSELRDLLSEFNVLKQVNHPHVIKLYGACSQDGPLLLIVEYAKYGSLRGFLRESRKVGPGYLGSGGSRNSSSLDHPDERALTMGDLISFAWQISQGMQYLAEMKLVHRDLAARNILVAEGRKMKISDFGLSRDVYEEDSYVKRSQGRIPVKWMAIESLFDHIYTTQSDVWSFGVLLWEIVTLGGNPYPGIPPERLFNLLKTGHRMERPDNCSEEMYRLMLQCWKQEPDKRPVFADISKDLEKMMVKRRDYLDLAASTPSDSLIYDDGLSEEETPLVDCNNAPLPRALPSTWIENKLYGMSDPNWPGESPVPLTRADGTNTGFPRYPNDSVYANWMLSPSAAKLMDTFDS

Structure (SMILES) | IC50 (RET) | Therapeutic effect on the asthma animal model (lung tissue pathological scoring) [1] | Bronchoalveolar lavage fluid IL-5 expression level [1] | Inflammatory cell count in bronchoalveolar lavage fluid [1] | Lung tissue inflammatory cell infiltration (HE pathology) [1] | Serum IgE expression level [1] | Serum IL-1α, IL-6 and DHT levels (acne model in rabbits; 1 mg/kg low-dose) | Hair follicle area (acne model in rabbits; 3 mg/kg) | Rabbit ear weight (acne model in rabbits; 3 mg/kg each time) | Ear tissue HE staining (acne model in rabbits; 3 mg/kg medium-dose) | Serum DHT level (acne model in rabbits; 3 mg/kg) | Serum IL-1α level (acne model in rabbits; 3 mg/kg) | Hair follicle area (acne model in rabbits; 9 mg/kg) | Rabbit ear weight (acne model in rabbits; 9 mg/kg each time) | Serum DHT level (acne model in rabbits; 9 mg/kg) | Serum IL-1α level (acne model in rabbits; 9 mg/kg) | Effect on inflammatory factors and acne (conclusion) (acne model in rabbits)
CCc1cc(O)c(F)cc1-c1ccc2c(-c3nc4c([nH]3)CN(C(=O)N3CC[C@H](O)C3)C4)n[nH]c2c1 [MDI-1228, (S)-(2-(6-(2-ethyl-5-fluoro-4-hydroxyphenyl)-1H-indazol-3-yl)-4,6-dihydropyrrolo[3,4-d]imidazol-5-(1H)-yl)(3-hydroxylpyrrolidin-1-yl)ketone] | 0.62 nM | certain therapeutic effect | significantly reduced the expression of IL-5 | significantly reduced the Inflammatory Cell Count | significantly reduced the lung tissue inflammatory cell infiltration | significantly reduced the expression of IgE | a trend of reduction in all three indicators | significantly reduced the enlargement of hair follicles | reduced ear weight | the best treatment effect | significantly reduced | significantly reduced | significantly reduced the enlargement of hair follicles | reduced ear weight | significantly reduced | significantly reduced | reducing the expression of inflammatory factors and improving acne
CCc1cc(O)c(F)cc1-c1ccc2c(-c3nc4c([nH]3)CN(C(=O)NCC(O)CCl)C4)n[nH]c2c1 (stereo not drawn) [MDI-1288] | 3.43 nM | certain therapeutic effect | significantly reduced the expression of IL-5 | significantly reduced the Inflammatory Cell Count | significantly reduced the lung tissue inflammatory cell infiltration | significantly reduced the expression of IgE |  |  | reduced ear weight |  | significantly reduced | significantly reduced |  |  |  |  | reducing the expression of inflammatory factors and improving acne
